Measurements published in ChEMBL document CHEMBL3507680, “University of Dundee, Gates Library screen for HepG2 cell viability”.

Experiment: Human HepG2 cell viability assay in 384 well format
Type: toxicity, cell-based
Set-up: dose 125 nL, time 70.5 hour; cytotoxicity at 70.5 h: concentration not given beside the values
Conditions: HepG2 cells, read-out: Inhibition

SMILES | cytotoxicity at 70.5 h [%]
Cc1ccc(C(=O)N2CCC3(CC2)CC(c2ccccc2)C(=O)N3)o1 (stereo not given) | -5.53
c1ccc(CN2CCOC3(CCCN(c4nccs4)C3)C2)cc1 (stereo not given) | -7.62
Cn1cc(CN2CCN3C[C@H](Oc4cccnc4)C[C@H]3C2)cn1 | -1.85
Cn1cccc1C(=O)N1CC[C@H]2[C@H](CO[C@H]2CNS(C)(=O)=O)C1 | -4.35
Cc1oncc1C(=O)N1CC[C@H]2[C@H](CO[C@@H]2CNS(C)(=O)=O)C1 | -5.2
CS(=O)(=O)NC[C@@H]1OC[C@H]2CN(C(=O)c3ccccc3)CC[C@H]21 | 15.9
O=C1CCCN1Cc1ncn2c1CN(S(=O)(=O)c1cccs1)CCC2 | -1.28
CN(C)CCN1CCOCC2(CCCN(C(=O)c3cccc(O)c3)C2)C1 (stereo not given) | -2.03
Cc1occc1C(=O)N1CC[C@@H]2[C@@H](CO[C@H]2CNS(C)(=O)=O)C1 | -1.5
O=C(NC1CC1)[C@@H]1CCO[C@@H]2CCN(C3CCCC3)C[C@H]21 | -0.698
Cc1nc([C@H]2C[C@@H]3CCN(Cc4cnn(C)c4)C[C@H]3O2)sc1C | -1.71
COCCN1CCC2(CCCN(C(=O)c3ccoc3C)C2)C1=O (stereo not given) | -1.73
CC(C)N(C)C(=O)C1=NOC2(CCN(C(=O)c3ccncc3)C2)C1 (stereo not given) | -8.56
Cc1noc([C@H]2C[C@H]3OCC[C@H]3N(S(=O)(=O)C3CC3)C2)n1 | -11.6
c1coc(CN2Cc3nccn3CC(Cn3cncn3)C2)c1 (stereo not given) | 1.12
CC(C)NC(=O)N1CCc2c(CNc3ncccn3)cncc2C1 | -3.35
CC(=O)N1CC(=O)N(c2ccsc2)CC12CCN(Cc1ccccn1)C2 (stereo not given) | -6.8
Cc1noc(C)c1CN1C[C@@H]2CCCO[C@@H]2[C@H](NS(C)(=O)=O)C1 | -9.8
O=C(c1ccoc1)N1CCO[C@]2(CCC[C@@H]2COCc2cccnc2)C1 | -1.92
COCC1CC2(CCN(Cc3nccn3C)CC2)CN1c1ncccn1 (stereo not given) | -0.457

SMILES | cytotoxicity at 70.5 h [%]
CN1CCOCC2(CCCN(C(=O)c3cn(C)cn3)C2)C1 (stereo not given) | 0.515
COC[C@H]1CNC(=O)[C@@H]2CCN(Cc3ccc(F)cc3)CC[C@H]12 | -1.94
COCC1CN(Cc2ccc(F)cc2)Cc2nnn(CC3CC3)c21 (stereo not given) | 0.526
CN(C)C(=O)CO[C@H]1CN(Cc2cccc(F)c2)[C@@H]2CCCO[C@H]12 | -0.497
COCCN1CC[C@@H]2O[C@@H](COCC(=O)N3CCCC3)CC[C@@H]21 | -3.26
Cc1ccc(CC(=O)N2Cc3nccn3CC(CN(C)C)C2)cc1 (stereo not given) | -13.3
c1ccc(N2CCCC3(COCCN(c4nccs4)C3)C2)nc1 (stereo not given) | -0.38
CC1N(CC2CC2)C(=O)COC12CCN(Cc1nccs1)CC2 (stereo not given) | -8.15
Cc1noc([C@@H]2C[C@H]3OCC[C@H]3N(S(=O)(=O)c3cccnc3)C2)n1 | -8.05
c1csc(CN2Cc3nccn3CC(Cn3cncn3)C2)n1 (stereo not given) | -7.09
CCN1CC2(CC1=O)CN(Cc1ccco1)CCN(C(=O)N(C)C)C2 (stereo not given) | -8.06
CC(=O)N1C[C@H]2CCCC(N3CCN(c4ncccn4)CC3)[C@H]2C1 (stereo not given in full) | 11.4
CN(C)CCN1CCOCC2(CCCN(C(=O)c3cccn3C)C2)C1 (stereo not given) | 0.0252
CN(C)CCN1CCOCC2(CCCN(C(=O)c3ccccc3)C2)C1 (stereo not given) | -2.82
Cc1ccc(O[C@@H]2C[C@H]3CN(Cc4nccn4C)CCN3C2)cc1 | -4.55
O=C(CC1CC1)N[C@@H]1CN(Cc2cccnc2)C[C@@H]2CCCO[C@@H]21 | -4.07
COCC1CC2(CCN(CC3CC3)CC2)CN1c1ncccn1 (stereo not given) | -3.59
c1cc2nc(C3CCN(CC4CC4)CC3)nn2cc1N1CCCC1 | -4.49
CN(C)Cc1cnc2n1CCN(Cc1ccsc1)CC2 | -2.43
Cn1ncc2c1CN(Cc1cccnc1)CC2COCC1CC1 (stereo not given) | -2.46
